Test results as given in article PMC8445934, “Transformation of tenofovir into stable ProTide nanocrystals with long-acting pharmacokinetic profiles” (Nature Communications, 2021).
pEC50: −log10 of the molar value. ≈ marks a conversion by molar mass, not a printed value. Where “and” joins values, the source holds several entries; their conditions need not be identical. Identical values can stand only once. Like-named read-outs stand apart in the source and are kept apart here.

Legend:
HIV-1 = details: cited from earlier work
[1] = cited from earlier work
HIV-1NL4–3-eGFP = assay: microbe, parasite or virus in culture; type: cell-based; details: replicates
Source text: Supplementary Fi gur e 9. ProTide Biological Characterizations. […]
(1 picture or pasted object on this page, not shown here)

[2] = Aqueous and 1-octanol solubility (excess drug, shaking 48 h, UPLC-UV); type: physicochemical; details: for solubility at 48 h: water, thermodynamic from solid
Experimental: Samples were centrifuged at 20,000 × g for 10 min to separate the solubilized drug from insoluble pellet. Aqueous supernatants were frozen, lyophilized, and then resuspended in MeOH. 1-octanol supernatants were prepared for analysis by dilution in MeOH and samples analyzed for drug content by UPLC-UV (Waters Acquity H Class).

[3] = Prodrug chemical stability of dissociated nanoformulations in pH 2.0-10.3 buffers; type: physicochemical; details: buffers pH 2.0-10.3, 24 h
Experimental: The mixtures were centrifuged at 16,000 × g for 10 min. The supernatants were aspirated and stored at −80 °C until ultraperformance liquid chromatography tandem mass spectrometry (UPLC-MS/MS) analysis.

[4] = Prodrug stability in human plasma with or without heat-inactivation; type: in vitro ADME
Source text: Point 4. “It would be interesting to see what happens with separate injection at 56 days. Will mast cells occur or was a IgG or IGM response measured?”
Response: The transient presence of mast cells at the intramuscular site of injection is a normal physiological tissue injury response and has been previously observed after intramuscular injection of phosphate buffered saline or aqueous nanocrystalline compounds (Journal of the Neurological Sciences […]
al, mast cells could affect host protein adsorption to the particle surface to influence phagocytosis efficiency, lymphatic nanoparticle uptake and prodrug hydrolytic susceptibility. Other findings by Paquette et al. noted that the foreign body response observed following intramuscular or subcutaneous dosing of […]
Res. 2014; 31(8): 2065–2077). […]
immunogenicity markers were previously measured (PLoS One. 2015 Dec 30;10(12):e0145966. doi:
10.1371/journal.pone.0145966). In our prior studies we have assessed temporal leukocyte responses, drug uptake and distribution following multiple site injection of nanoformulated drugs. […]
inflammatory responses heralded drug distribution to macrophage populations, regional lymph nodes, spleen and liver. This proceeded changes in myeloid populations as determined through flow cytometric tests of changed CD45, CD3, CD11b, F4/80, and GR-1 surface markers. […]

HIV-1ADA = assay: Antiretroviral EC50/IC50 in MDM by HIV-1 RT activity after HIV-1ADA challenge; type: cell-based; details: for pEC50: Human immunodeficiency virus 1, 240 h; for HIV-1 RT activity (Figure 2C source data): MDM, HIV-1ADA, replicates
Experimental: To determine long-term antiretroviral efficacy following a single treatment, MDMs were plated in flat-bottom 12-well plates at a density of 1.2 × 10^6 cells/well. […] After treatment, the cells were washed twice with PBS and cultured in a fresh culture medium without drug with half-media replacement every other day. On days 1, 5, 10, 15, 20, 25, and 30 following treatment, the cells were infected with HIV-1ADA (a macrophage-tropic viral strain) at a multiplicity of infection of 0.1 infectious particles/cell for 8 h. MDM were cultured, and media samples collected on day 10 for the measurement of HIV reverse transcriptase (RT) activity as previously described[64],[65]. Cells were fixed in 2% PFA at each time point, and expression of the HIV-1p24 antigen was determined by immunocytochemistry. […] After 4 h of viral challenge, the cells were washed with PBS and given fresh media that contained the same concentrations of drug (0.00005–5,000 nM). Cell supernatants were collected 10 days later and assayed for HIV-1 RT activity as described above. Replicate studies were performed in CEM-ss CD4+ T-cell cultures. Specifically, cells were plated in 96-well plates, centrifuged at 650 × g for 5 min, and resuspended in (0.1–1,000 nM) drug-containing media for 1 h. The subsequent challenge with HIV-1NL4–3-eGFP, cell culture, sample collection, and determination of HIV-1 RT activity were performed as previously reported[13],[15].

[5] = Log Drug Concentration (uM) -12
[6] = Figure 1C source data, read-out: water solubility, individual replicates
[7] = room temperature, 48 h, read-out: aqueous solubilities

C[C@@H](Cn1cnc2c(N)ncnc21)OCP(=O)(O)OP(=O)(O)OP(=O)(O)O [TFV-DP, TFV-diphosphate]
EC90 linked to HIV-1 prevention (HIV-1): 16−48 fmol/10^6 cells | human EC90 (HIV-1): 40 fmol/10^6 cells | intracellular half-life [1]: 60 to 100 h

C[C@H](Cn1cnc2c(N)ncnc21)OCP(=O)(O)O [TFV]
% GFP Positive (HIV-1NL4–3-eGFP; Log Drug Concentration (uM) 0): 36.84% and 37.843% | % GFP Positive (HIV-1NL4–3-eGFP; Log Drug Concentration (uM) -1): 31.924% and 40.715% and 38.216% | % GFP Positive (HIV-1NL4–3-eGFP; Log Drug Concentration (uM) -2): 37.754% and 35.95% and 31.757% | % GFP Positive (HIV-1NL4–3-eGFP; Log Drug Concentration (uM) -3): 42.49% and 36.095% and 44.333% | % GFP Positive (HIV-1NL4–3-eGFP; Log Drug Concentration (uM) -4): 39.731% and 37.304% and 35.107% | % GFP Positive (HIV-1NL4–3-eGFP; Log Drug Concentration (uM) -5): 38.31% and 35.838% and 38.644% | % GFP Positive (HIV-1NL4–3-eGFP; Log Drug Concentration (uM) -6): 32.278% and 38.458% and 41.384% | % GFP Positive (HIV-1NL4–3-eGFP; Log Drug Concentration (uM) -9): 41.35% and 30.768% | % GFP Positive (HIV-1NL4–3-eGFP; [5]): 42.035% and 35.935% and 39.23%

CCCCCCCCCCCCCCCCCCCCCCOC(=O)[C@H](Cc1ccccc1)NP(=O)(CO[C@H](C)Cn1cnc2c(N)ncnc21)Oc1ccccc1 (stereo partly drawn) [M1TFV]
water solubility, individual replicates ([2]; Figure 1C source data): 0.0003886 | solubility at 48 h [2, 6]: 0.276 µg/mL (≈ 0.338 µM) | solubility at 48 h [2, 7]: 2 µg/mL (≈ 2.44 µM) | hydrolytic stability across pH [3]: enhanced prodrug stability over a broader pH range | prodrug stability in human plasma [4]: greater prodrug stability is observed following heat-inactivation | pEC50 (HIV-1ADA): 6.96 | HIV-1 RT activity (Figure 2C source data) (HIV-1ADA; 5e-5 nM): 44.264 and 8.411 and 11.973 | HIV-1 RT activity (Figure 2C source data) (HIV-1ADA; 0.0005 nM): 42.363 and 4.488 and 5.375 and 2.931 | HIV-1 RT activity (Figure 2C source data) (HIV-1ADA; 0.005 nM): 26.663 and 5.953 and 9.965 and 9.489 | HIV-1 RT activity (Figure 2C source data) (HIV-1ADA; 0.05 nM): 19.017 and 5.47 and 12.158 and 10.741 | HIV-1 RT activity (Figure 2C source data) (HIV-1ADA; 0.5 nM): 23.553 and 6.74 and 16.993 and 9.609 | HIV-1 RT activity (Figure 2C source data) (HIV-1ADA; 5 nM): 22.939 and 4.566 and 20.189 and 10.617 | HIV-1 RT activity (Figure 2C source data) (HIV-1ADA; 50 nM): 10.793 and 9.389 and 15.273 and 9.576 | HIV-1 RT activity (Figure 2C source data) (HIV-1ADA; 500 nM): 1.18 and 0.8 and 2.373 and 0.711 | HIV-1 RT activity (Figure 2C source data) (HIV-1ADA; 5000 nM): 0.069 and 0.042 and 0.107 and 0.063 | % GFP Positive (HIV-1NL4–3-eGFP; Log Drug Concentration (uM) 0): 0.301% and 0.201% and 0.21% | % GFP Positive (HIV-1NL4–3-eGFP; Log Drug Concentration (uM) -1): 3.432% and 0.342% and 0.154% | % GFP Positive (HIV-1NL4–3-eGFP; Log Drug Concentration (uM) -2): 34.73% and 38.138% and 34.265% | % GFP Positive (HIV-1NL4–3-eGFP; Log Drug Concentration (uM) -3): 36.744% and 32.312% and 31.881% | % GFP Positive (HIV-1NL4–3-eGFP; Log Drug Concentration (uM) -4): 44.656% and 35.338% and 30.526% | % GFP Positive (HIV-1NL4–3-eGFP; Log Drug Concentration (uM) -5): 36.768% and 35.49% and 33.571% | % GFP Positive (HIV-1NL4–3-eGFP; Log Drug Concentration (uM) -6): 35.681% and 31.592% and 30.989% | % GFP Positive (HIV-1NL4–3-eGFP; Log Drug Concentration (uM) -9): 32.583% and 32.39% and 32.614% | % GFP Positive (HIV-1NL4–3-eGFP; [5]): 35.706% and 34.095% and 37.882%

CCCCCCCCCCCCCCCCCCCCCCOC(=O)[C@H](C)NP(=O)(CO[C@H](C)Cn1cnc2c(N)ncnc21)Oc1ccccc1 (stereo partly drawn) [M2TFV]
water solubility, individual replicates ([2]; Figure 1C source data): 0.01251 | solubility at 48 h [2, 6]: 12.8 µg/mL (≈ 17.2 µM) | solubility at 48 h [2, 7]: 7 µg/mL (≈ 9.42 µM) | pEC50 (HIV-1ADA): 7.34 | HIV-1 RT activity (Figure 2C source data) (HIV-1ADA; 5e-5 nM): 13.739 and 9.752 and 35.142 and 27.238 | HIV-1 RT activity (Figure 2C source data) (HIV-1ADA; 0.0005 nM): 8.448 and 5.392 and 11.763 and 48.649 | HIV-1 RT activity (Figure 2C source data) (HIV-1ADA; 0.005 nM): 4.57 and 12.93 and 25.65 | HIV-1 RT activity (Figure 2C source data) (HIV-1ADA; 0.05 nM): 20.147 and 8.847 and 17.324 and 34.222 | HIV-1 RT activity (Figure 2C source data) (HIV-1ADA; 0.5 nM): 8.161 and 9.38 and 10.627 and 29.921 | HIV-1 RT activity (Figure 2C source data) (HIV-1ADA; 5 nM): 11.203 and 10.291 and 8.118 and 21.328 | HIV-1 RT activity (Figure 2C source data) (HIV-1ADA; 50 nM): 5.19 and 8.444 and 10.014 and 13.232 | HIV-1 RT activity (Figure 2C source data) (HIV-1ADA; 500 nM): 0.193 and 0.074 and 0.345 and 0.105 | HIV-1 RT activity (Figure 2C source data) (HIV-1ADA; 5000 nM): 0.109 and 0.079 and 0.087 and 0.068 | % GFP Positive (HIV-1NL4–3-eGFP; Log Drug Concentration (uM) -1): 34.257% and 38.787% and 40.022% | % GFP Positive (HIV-1NL4–3-eGFP; Log Drug Concentration (uM) -2): 32.595% and 37.488% and 35.513% | % GFP Positive (HIV-1NL4–3-eGFP; Log Drug Concentration (uM) -3): 41.233% and 50.41% and 33.492% | % GFP Positive (HIV-1NL4–3-eGFP; Log Drug Concentration (uM) -4): 35.706% and 41.394% and 37.81% | % GFP Positive (HIV-1NL4–3-eGFP; Log Drug Concentration (uM) -5): 40.045% and 36.193% and 55.429% | % GFP Positive (HIV-1NL4–3-eGFP; Log Drug Concentration (uM) -6): 38.435% and 46.924% and 37.203% | % GFP Positive (HIV-1NL4–3-eGFP; Log Drug Concentration (uM) -9): 35.618% and 35.142% and 32.671% | % GFP Positive (HIV-1NL4–3-eGFP; [5]): 34.002% and 36.532% and 30.423%
